Experimental data published in ChEMBL document CHEMBL1201862, “PubChem BioAssay data set” (2004).
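Method: 48-hour compound exposure of cells in 96-well plates, five concentrations, linear interpolation of endpoints. The concentration for 50% growth inhibition is given as GI50.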 Active and inactive are the calls of the source. Cut-off read from the data, not from the text of the source: active = GI50 up to about 1.1 µM and inactive = higher.

Columns and labels:
Assay in all cases: NCI-60 cell line screen, 48 h
[1] = test system: A549
[2] = test system: ACHN
[3] = test system: CAKI-1
[4] = test system: CCRF-CEM
[5] = test system: HCT-116
[6] = test system: HCT-15
[7] = test system: HT-29
[8] = test system: NCI-H460
[9] = test system: NCI/ADR-RES
[10] = test system: OVCAR-4
[11] = test system: OVCAR-5
[12] = test system: PC-3
[13] = test system: RPMI-8226
[14] = test system: SF-268
[15] = test system: SK-OV-3
[16] = test system: SNB-19
[17] = test system: SNB-75
[18] = test system: SR
[19] = test system: TK-10
[20] = test system: UACC-62

Structure (SMILES): C=C(c1ccccc1)[C@@]1(O)CC[C@@H]1N(CC#N)Cc1ccccc1
- GI50 [1]: 32.9 µM (inactive)
- GI50 [2]: 20.8 µM (inactive)
- GI50 [3]: 18.9 µM (inactive)
- GI50 [4]: 32 µM (inactive)
- GI50 [5]: 16.6 µM (inactive)
- GI50 [6]: 18.7 µM
- GI50 [7]: 19.8 µM (inactive)
- GI50 [8]: 44.3 µM (inactive)
- GI50 [9]: 19.7 µM (inactive)
- GI50 [10]: 15.3 µM (inactive)
- GI50 [11]: 53.6 µM (inactive)
- GI50 [12]: 22.9 µM (inactive)
- GI50 [13]: 20 µM (inactive)
- GI50 [14]: 33.5 µM (inactive)
- GI50 [15]: 98.9 µM (inactive)
- GI50 [16]: 36.6 µM (inactive)
- GI50 [17]: 33.9 µM (inactive)
- GI50 [18]: 37.2 µM (inactive)
- GI50 [19]: 20.8 µM (inactive)
- GI50 [20]: 17.9 µM (inactive)

Structure (SMILES): COc1cc([C@@H]2c3cc4c(cc3[C@@H](OC3OC5CO[C@@H](c6cccs6)OC5C(O)C3O)[C@H]3COC(=O)[C@H]23)OCO4)cc(OC)c1O (stereo not given in full)
- GI50 [1]: 0.144 µM (active)
- GI50 [2]: 0.173 µM (active)
- GI50 [3]: 0.0733 µM (active)
- GI50 [4]: 0.046 µM (active)
- GI50 [5]: 0.885 µM (active)
- GI50 [6]: 1.55 µM
- GI50 [7]: 1.61 µM (inactive)
- GI50 [8]: 0.0171 µM (active)
- GI50 [9]: 23.4 µM (inactive)
- GI50 [10]: 5.12 µM (inactive)
- GI50 [11]: 1.77 µM (inactive)
- GI50 [12]: 1.11 µM (active)
- GI50 [13]: 0.164 µM (active)
- GI50 [14]: 0.48 µM (active)
- GI50 [15]: 0.395 µM (active)
- GI50 [16]: 0.299 µM (active)
- GI50 [17]: 0.502 µM (active)
- GI50 [18]: 0.0117 µM (active)
- GI50 [19]: 1.75 µM (inactive)
- GI50 [20]: 0.183 µM (active)

Structure (SMILES): Cc1nc2sc(C(=O)c3ccc(Cl)cc3)c(N)c2c(-c2ccccc2Cl)c1C(=O)Nc1ccccc1
- GI50 [1]: 9.06 µM (inactive)
- GI50 [2]: 21.2 µM (inactive)
- GI50 [3]: 12 µM (inactive)
- GI50 [4]: 3.77 µM (inactive)
- GI50 [5]: 6.44 µM (inactive)
- GI50 [6]: 15.6 µM
- GI50 [7]: 12.2 µM (inactive)
- GI50 [8]: 9.02 µM (inactive)
- GI50 [9]: 19.5 µM (inactive)
- GI50 [10]: 16.5 µM (inactive)
- GI50 [11]: 16 µM (inactive)
- GI50 [12]: 19 µM (inactive)
- GI50 [13]: 23.3 µM (inactive)
- GI50 [14]: 19.3 µM (inactive)
- GI50 [15]: 14.4 µM (inactive)
- GI50 [16]: 22.2 µM (inactive)
- GI50 [17]: 11.4 µM (inactive)
- GI50 [18]: 18.1 µM (inactive)
- GI50 [19]: 6.76 µM (inactive)
- GI50 [20]: 13.6 µM (inactive)

Structure (SMILES): Cc1ccc(-c2n[nH]c(=O)n2N)cc1
- GI50 [1]: > 100 µM (inactive)
- GI50 [2]: > 100 µM (inactive)
- GI50 [3]: > 100 µM (inactive)
- GI50 [4]: > 100 µM (inactive)
- GI50 [5]: > 100 µM (inactive)
- GI50 [6]: > 100 µM
- GI50 [7]: > 100 µM (inactive)
- GI50 [8]: > 100 µM (inactive)
- GI50 [9]: > 100 µM (inactive)
- GI50 [10]: > 100 µM (inactive)
- GI50 [11]: > 100 µM (inactive)
- GI50 [12]: > 100 µM (inactive)
- GI50 [13]: > 100 µM (inactive)
- GI50 [14]: > 100 µM (inactive)
- GI50 [15]: > 100 µM (inactive)
- GI50 [16]: > 100 µM (inactive)
- GI50 [17]: 48 µM (inactive)
- GI50 [18]: > 100 µM (inactive)
- GI50 [19]: > 100 µM (inactive)
- GI50 [20]: > 100 µM (inactive)

Structure (SMILES): Cc1ccc2c(c1)CN(C(=O)CCC(=O)OCc1ccccc1)c1ccc(C)cc1CN2C(=O)CCC(=O)OCc1ccccc1
- GI50 [1]: > 100 µM (inactive)
- GI50 [2]: > 100 µM (inactive)
- GI50 [3]: > 100 µM (inactive)
- GI50 [4]: > 100 µM (inactive)
- GI50 [5]: > 100 µM (inactive)
- GI50 [6]: > 100 µM
- GI50 [7]: > 100 µM (inactive)
- GI50 [8]: > 100 µM (inactive)
- GI50 [9]: > 100 µM (inactive)
- GI50 [10]: > 100 µM (inactive)
- GI50 [11]: > 100 µM (inactive)
- GI50 [12]: > 100 µM (inactive)
- GI50 [13]: > 100 µM (inactive)
- GI50 [14]: > 100 µM (inactive)
- GI50 [15]: > 100 µM (inactive)
- GI50 [16]: > 100 µM (inactive)
- GI50 [17]: 26.6 µM (inactive)
- GI50 [18]: > 100 µM (inactive)
- GI50 [19]: > 100 µM (inactive)
- GI50 [20]: > 100 µM (inactive)

Structure (SMILES): O=C(Nc1ccccn1)c1cc2c(cc1Cl)Sc1nccn1S2(=O)=O
- GI50 [1]: 34.8 µM (inactive)
- GI50 [2]: 32.1 µM (inactive)
- GI50 [3]: 36.5 µM (inactive)
- GI50 [4]: 22.5 µM (inactive)
- GI50 [5]: 28.4 µM (inactive)
- GI50 [6]: 30.7 µM
- GI50 [7]: 31.1 µM (inactive)
- GI50 [8]: 30.1 µM (inactive)
- GI50 [9]: 31 µM (inactive)
- GI50 [10]: 33 µM (inactive)
- GI50 [11]: > 100 µM (inactive)
- GI50 [12]: 44.8 µM (inactive)
- GI50 [13]: 29.7 µM (inactive)
- GI50 [14]: 37.8 µM (inactive)
- GI50 [15]: 38.1 µM (inactive)
- GI50 [16]: 56.1 µM (inactive)
- GI50 [17]: 33.2 µM (inactive)
- GI50 [18]: 29.4 µM (inactive)
- GI50 [19]: 33.4 µM (inactive)
- GI50 [20]: 42 µM (inactive)

Structure (SMILES): c1ccc2c(c1)c1c(c3ccccc32)CN2CCCC2C1 (stereo not given)
- GI50 [1]: 2.96 µM (inactive)
- GI50 [2]: 3.01 µM (inactive)
- GI50 [3]: 4.07 µM (inactive)
- GI50 [4]: 2.99 µM (inactive)
- GI50 [5]: 3.17 µM (inactive)
- GI50 [6]: 4.09 µM
- GI50 [7]: 3.72 µM (inactive)
- GI50 [8]: 3.03 µM (inactive)
- GI50 [9]: 3.94 µM (inactive)
- GI50 [10]: 3.3 µM (inactive)
- GI50 [11]: 3.94 µM (inactive)
- GI50 [12]: 3 µM (inactive)
- GI50 [13]: 4.24 µM (inactive)
- GI50 [14]: 2.92 µM (inactive)
- GI50 [15]: 7.52 µM (inactive)
- GI50 [16]: 2.66 µM (inactive)
- GI50 [17]: 3.01 µM (inactive)
- GI50 [18]: 4.89 µM (inactive)
- GI50 [19]: 10.4 µM (inactive)
- GI50 [20]: 2.33 µM (inactive)
